Test results published in US6358885B1, “Substituted phenylheterocyclic herbicides” (Mississippi State University, priority 1992, dated 2002).

Experiments:
cheatgrass = experiment: Test B preemergence/postemergence greenhouse plant response rating 0 to 10; format: in vivo, Bromus secalinus; settings: for Plant response rating, Cheatgrass: 0 to 10 scale
Procedure, shortened: (§1)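 Both application timings were run together: seeds got compound preemergence, and established seedlings (two to eighteen cm) got it postemergence. Non-phytotoxic solvent carried the chemical. Ratings are visual, versus controls, at twelve to sixteen days.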

rape = experiment: as above; format: in vivo, Brassica napus; settings: 0 to 10 scale
Procedure, shortened: as §1

barnyardgrass = experiment: as above; format: in vivo, Echinochloa crus-galli; settings: for Plant response rating, Barnyardgrass: 0 to 10 scale
Procedure, shortened: as §1

giant foxtail = experiment: as above; format: in vivo, Setaria faberii; settings: 0 to 10 scale
Procedure, shortened: as §1

chickweed = experiment: as above; format: in vivo, Stellaria media; settings: for Plant response rating, Chickweed: 0 to 10 scale
Procedure, shortened: as §1

corn = experiment: as above; format: in vivo, Zea mays; settings: for Plant response rating, Corn: 0 to 10 scale
Procedure, shortened: as §1

broadleaf signalgrass = experiment: Test G preemergence/postemergence greenhouse plant response rating 0 to 100; format: in vivo, Brachiaria plantaginea; settings: 0 to 100 scale
Excerpt: Seeds, rhizomes, or plant parts of alfalfa (Medicago ativa), annual bluegrass (Poa annua), bermudagrass (Cynodon dactylon), broadleaf signalgrass (Brachiaria plantaginea), common purslane (Portulaca oleracea), common ragweed (Ambrosia elatior), […] (Paspalum dilatatum), goosegrass (Eleusine indica), guineagrass (Panicum maximum), […] exaltata), johnsongrass (Sorghum halepense), large crabgrass (Digitaria sanguinalis), peanut (Arachis hypoagaea), pitted morningglory (Ipomoea lacunosa), purple nutsedge (Cyperus rotundus), sandbur (Cenchrus echinatus), smooth crabgrass (Digitaria ischaemum) and yellow nutsedge (Cyperus esculentus) were planted into greenhouse pots containing greenhouse planting medium. Each pot contained only one plant species. The test compound was dissolved in a non-phytotoxic solvent and applied preemergence and/or postemergence to the plants. Preemergence applications were made within one day of planting the seeds or plant parts. Postemergence applications were applied when the plants were in the two to four leaf stage (three to twenty cm). Test chemicals were dissolved in a non-phytotoxic solvent and applied preemergence and postemergence to the plants. Untreated control plants and treated plants were placed in the greenhouse and visually evaluated for injury at 13 to 21 days after herbicide application. […] A dash (-) response indicates no test result.

morningglory = experiment: Test B preemergence/postemergence greenhouse plant response rating 0 to 10; format: in vivo, Ipomoea hederacea; settings: 0 to 10 scale
Procedure, shortened: as §1

crabgrass = experiment: as above; format: in vivo, Digitaria spp.; settings: for Plant response rating, Crabgrass: 0 to 10 scale
Procedure, shortened: as §1

velvetleaf = experiment: as above; format: in vivo, Abutilon theophrasti; settings: 0 to 10 scale
Procedure, shortened: as §1

Fc1cc(Cl)c(OC2CCCC2)cc1-c1nn2c(c1Cl)CCCC2 [Compound 24]
9: Plant response rating, Chickweed (chickweed; POSTEMERGENCE, Rate 200 g/ha) | Plant response rating, Morningglory (morningglory; POSTEMERGENCE, Rate 50 g/ha) | Plant response rating, Velvetleaf (velvetleaf; Rate 200 g/ha, PREEMERGENCE)
2: Plant response rating, Rape (rape; PREEMERGENCE, Rate 50 g/ha)
7: Plant response rating, Rape (rape; POSTEMERGENCE, Rate 200 g/ha) | Plant response rating, Crabgrass (crabgrass; Rate 200 g/ha, PREEMERGENCE)
4: Plant response rating, Cheatgrass (cheatgrass; Rate 200 g/ha, PREEMERGENCE) | Plant response rating (0 to 10 scale), Barnyardgrass (barnyardgrass; POSTEMERGENCE, Rate 50 g/ha) | Plant response rating, Barnyardgrass (barnyardgrass; Rate 200 g/ha, PREEMERGENCE) | Plant response rating, Giant foxtail (giant foxtail; POSTEMERGENCE, Rate 50 g/ha)
1: Plant response rating, Barnyardgrass (barnyardgrass; PREEMERGENCE, Rate 50 g/ha) | Plant response rating, Corn (corn; Rate 200 g/ha, PREEMERGENCE) | Plant response rating, Morningglory (morningglory; PREEMERGENCE, Rate 50 g/ha) | Plant response rating, Velvetleaf (velvetleaf; PREEMERGENCE, Rate 50 g/ha)
5: Plant response rating, Cheatgrass (cheatgrass; POSTEMERGENCE, Rate 200 g/ha) | Plant response rating, Rape (rape; POSTEMERGENCE, Rate 50 g/ha) | Plant response rating, Giant foxtail (giant foxtail; POSTEMERGENCE, Rate 200 g/ha) | Plant response rating (0 to 10 scale), Corn (corn; POSTEMERGENCE, Rate 50 g/ha) | Plant response rating, Corn (corn; POSTEMERGENCE, Rate 200 g/ha) | Plant response rating, Morningglory (morningglory; Rate 200 g/ha, PREEMERGENCE) | Plant response rating (0 to 10 scale), Crabgrass (crabgrass; POSTEMERGENCE, Rate 50 g/ha) | Plant response rating, Crabgrass (crabgrass; POSTEMERGENCE, Rate 200 g/ha)
6: Plant response rating, Barnyardgrass (barnyardgrass; POSTEMERGENCE, Rate 200 g/ha)
0: Plant response rating, Cheatgrass (cheatgrass; PREEMERGENCE, Rate 50 g/ha) | Plant response rating, Chickweed (chickweed; PREEMERGENCE, Rate 50 g/ha) | Plant response rating, Corn (corn; PREEMERGENCE, Rate 50 g/ha) | Plant response rating, Brdlf Sgnlgrass (broadleaf signalgrass; POSTEMERGENCE, Rate 125 g/ha) | Plant response rating, Brdlf Sgnlgrass (broadleaf signalgrass; POSTEMERGENCE, Rate 250 g/ha) | Plant response rating, Brdlf Sgnlgrass (broadleaf signalgrass; PREEMERGENCE, Rate 250 g/ha) | Plant response rating, Crabgrass (crabgrass; PREEMERGENCE, Rate 50 g/ha)
8: Plant response rating, Rape (rape; Rate 200 g/ha, PREEMERGENCE) | Plant response rating, Giant foxtail (giant foxtail; Rate 200 g/ha, PREEMERGENCE) | Plant response rating (0 to 10 scale), Chickweed (chickweed; POSTEMERGENCE, Rate 50 g/ha) | Plant response rating, Morningglory (morningglory; POSTEMERGENCE, Rate 200 g/ha)
100: Plant response rating, Brdlf Sgnlgrass (broadleaf signalgrass; PREEMERGENCE, Rate 125 g/ha)
10: Plant response rating, Velvetleaf (velvetleaf; POSTEMERGENCE, Rate 50 g/ha) | Plant response rating, Velvetleaf (velvetleaf; POSTEMERGENCE, Rate 200 g/ha)
3: Plant response rating (0 to 10 scale), Cheatgrass (cheatgrass; POSTEMERGENCE, Rate 50 g/ha) | Plant response rating, Giant foxtail (giant foxtail; PREEMERGENCE, Rate 50 g/ha) | Plant response rating, Chickweed (chickweed; Rate 200 g/ha, PREEMERGENCE)

CCS(=O)(=O)Oc1cc(-c2nn3c(c2Cl)CCCC3)c(F)cc1Cl [Compound 25]
8: Plant response rating, Morningglory (morningglory; POSTEMERGENCE, Rate 50 g/ha) | Plant response rating, Velvetleaf (velvetleaf; POSTEMERGENCE, Rate 50 g/ha)
1: Plant response rating, Morningglory (morningglory; PREEMERGENCE, Rate 50 g/ha) | Plant response rating, Velvetleaf (velvetleaf; PREEMERGENCE, Rate 50 g/ha)
9: Plant response rating, Rape (rape; Rate 200 g/ha, PREEMERGENCE) | Plant response rating, Chickweed (chickweed; Rate 200 g/ha, PREEMERGENCE)
7: Plant response rating, Giant foxtail (giant foxtail; Rate 200 g/ha, PREEMERGENCE) | Plant response rating, Crabgrass (crabgrass; Rate 200 g/ha, PREEMERGENCE)
3: Plant response rating (0 to 10 scale), Cheatgrass (cheatgrass; POSTEMERGENCE, Rate 50 g/ha) | Plant response rating, Cheatgrass (cheatgrass; POSTEMERGENCE, Rate 200 g/ha) | Plant response rating, Cheatgrass (cheatgrass; Rate 200 g/ha, PREEMERGENCE) | Plant response rating (0 to 10 scale), Barnyardgrass (barnyardgrass; POSTEMERGENCE, Rate 50 g/ha) | Plant response rating, Giant foxtail (giant foxtail; POSTEMERGENCE, Rate 50 g/ha) | Plant response rating (0 to 10 scale), Corn (corn; POSTEMERGENCE, Rate 50 g/ha) | Plant response rating (0 to 10 scale), Crabgrass (crabgrass; POSTEMERGENCE, Rate 50 g/ha)
5: Plant response rating, Barnyardgrass (barnyardgrass; POSTEMERGENCE, Rate 200 g/ha) | Plant response rating, Morningglory (morningglory; Rate 200 g/ha, PREEMERGENCE) | Plant response rating, Crabgrass (crabgrass; PREEMERGENCE, Rate 50 g/ha)
2: Plant response rating, Barnyardgrass (barnyardgrass; PREEMERGENCE, Rate 50 g/ha) | Plant response rating, Giant foxtail (giant foxtail; PREEMERGENCE, Rate 50 g/ha) | Plant response rating, Crabgrass (crabgrass; POSTEMERGENCE, Rate 200 g/ha)
0: Plant response rating, Cheatgrass (cheatgrass; PREEMERGENCE, Rate 50 g/ha) | Plant response rating, Rape (rape; PREEMERGENCE, Rate 50 g/ha) | Plant response rating, Chickweed (chickweed; PREEMERGENCE, Rate 50 g/ha) | Plant response rating, Corn (corn; PREEMERGENCE, Rate 50 g/ha) | Plant response rating, Corn (corn; Rate 200 g/ha, PREEMERGENCE) | Plant response rating, Brdlf Sgnlgrass (broadleaf signalgrass; POSTEMERGENCE, Rate 125 g/ha) | Plant response rating, Brdlf Sgnlgrass (broadleaf signalgrass; POSTEMERGENCE, Rate 250 g/ha) | Plant response rating, Brdlf Sgnlgrass (broadleaf signalgrass; PREEMERGENCE, Rate 125 g/ha) | Plant response rating, Brdlf Sgnlgrass (broadleaf signalgrass; PREEMERGENCE, Rate 250 g/ha)
10: Plant response rating, Rape (rape; POSTEMERGENCE, Rate 50 g/ha) | Plant response rating, Rape (rape; POSTEMERGENCE, Rate 200 g/ha) | Plant response rating, Morningglory (morningglory; POSTEMERGENCE, Rate 200 g/ha) | Plant response rating, Velvetleaf (velvetleaf; POSTEMERGENCE, Rate 200 g/ha) | Plant response rating, Velvetleaf (velvetleaf; Rate 200 g/ha, PREEMERGENCE)
4: Plant response rating, Giant foxtail (giant foxtail; POSTEMERGENCE, Rate 200 g/ha)
6: Plant response rating, Barnyardgrass (barnyardgrass; Rate 200 g/ha, PREEMERGENCE) | Plant response rating, Corn (corn; POSTEMERGENCE, Rate 200 g/ha)
